The test deals with Plasmodium berghei. Nature of the test: Luciferase/luciferin-expressing antifolate-resistant parasites were used to infect a culture of HepG2 cells that were pre-incubated with compounds. Infected hepatocytes emit light due to the luciferase reaction. Assay results are presented as the percent inhibition of light emission compared to control. […]. As to conditions: sporozoite; for IC90: read-out: LUCIFERASE INFECTION ASSAY - IC90. The test is classed as functional.

The mark [1] stands for this setting: read-out: LUCIFERASE INFECTION ASSAY - IC50.

Consider 39 compounds from ChEMBL document CHEMBL4483862, “Open-source discovery of chemical leads for next-generation chemoprotective antimalarials” (2018).

Where only a bound is given, the exact number is not on record here.

Broadly, the IC50 is the concentration that gives 50% inhibition. By IC90 is commonly meant the concentration at which the effect reaches the 90% level. For the compound `NCCCNc1ccnc2cc(Cl)ccc12`, the IC90 is above 14 µM. The IC50 (PBLUC_HILL_SLOPE 2.91, PBLUC_R_SQUARED 0.438, read-out: LUCIFERASE INFECTION ASSAY - IC50) came to 8.74 µM.
For the compound `Cc1cc(C(=O)CSc2nc3cc([N+](=O)[O-])ccc3n2-c2ccccc2)c(C)n1Cc1ccco1`, the IC90 was above 10 µM. Besides, the IC50 under setting [1] was above 10 µM.
On to `CNc1nc(-c2[nH]c(C)c(C(=O)OC)c2C)cs1`, for which the IC90 turned out to be 2.11 µM. For the same compound, the IC50 (FFLUC_HILL_SLOPE 0.348, FFLUC_R_SQUARED 0.146, HEPG2TOX_HILL_SLOPE 0.722, HEPG2TOX_R_SQUARED 0.883, PBLUC_HILL_SLOPE 1.52, PBLUC_R_SQUARED 0.828, read-out: LUCIFERASE INFECTION ASSAY - IC50) was found to be 0.496 µM.
For `OC1CCN(c2ccnc3c(-c4ccc5ccccc5c4)cnn23)CC1`, the IC90 was found to be 0.96 µM. Moreover, the IC50 (PBLUC_HILL_SLOPE 1.1, PBLUC_R_SQUARED 0.73, read-out: LUCIFERASE INFECTION ASSAY - IC50) was 0.129 µM.
As to `CCOC(=O)c1c[nH]c2c(C)cc(Cl)cc2c1=O`, the IC90 was above 12.4 µM. Further, the IC50 (PBLUC_HILL_SLOPE 15.3, PBLUC_R_SQUARED 0.364, read-out: LUCIFERASE INFECTION ASSAY - IC50) was 11.2 µM.
Take `NC(=O)c1ccc(-c2cc(-c3ccccc3)cnc2N)cc1`: the IC90 came to 4.22 µM. In addition, where the note is “HEPG2TOX_HILL_SLOPE 7.43, HEPG2TOX_R_SQUARED 0.0328, PBLUC_HILL_SLOPE 16.6, PBLUC_R_SQUARED 0.439, read-out: LUCIFERASE INFECTION ASSAY - IC50”, the IC50 turned out to be 3.7 µM.
Regarding `N#Cc1cccc(CN2CCN3C(C(=O)Nc4ccc(-n5cccc5)cc4)=COC3=NC2=O)c1`, the IC90 was above 10 µM. In addition, under setting [1], the IC50 was above 10 µM.
As for `COC(=O)c1sc2[nH]c(COC(=O)c3ccccc3)nc(=O)c2c1C`, the IC90 is above 10 µM. Besides, the IC50 under setting [1] was above 10 µM.
Consider `Cc1nc(NCc2ccco2)c2c(C)c(C)sc2n1`, for which the IC90 worked out at 4.47 µM. In addition, under setting [1], the IC50 amounted to 3.73 µM.
For the compound `COc1cccc(-c2cc3c(Nc4cccnc4)nccc3[nH]2)c1`, the IC90 was above 10 µM. In addition, the IC50 (PBLUC_HILL_SLOPE 3.56, PBLUC_R_SQUARED 0.0884, read-out: LUCIFERASE INFECTION ASSAY - IC50) amounted to 9.12 µM.
`O=[N+]([O-])c1cc(C(F)(F)F)ccc1Sc1nnc(-c2cc(Cl)cc(Cl)c2)[nH]1`: the IC90 was determined as 7.2 µM. The IC50 (HEPG2TOX_HILL_SLOPE 11.8, HEPG2TOX_R_SQUARED 0.697, PBLUC_HILL_SLOPE 13.2, PBLUC_R_SQUARED 0.063, read-out: LUCIFERASE INFECTION ASSAY - IC50) was 6.09 µM.
Take `C=Cc1c(S(C)(=O)=O)sc(C(N)=O)c1C`: the IC90 is above 13.5 µM. In addition, under setting [1], the IC50 was above 13.5 µM.
For the compound `COc1ccc(C(=O)Nc2cc(Cl)ccc2N2CCCCC2)cc1S(=O)(=O)N(C)OC`, the IC90 is above 10 µM. For the same compound, the IC50 (FFLUC_HILL_SLOPE 10.9, FFLUC_R_SQUARED 0.3, PBLUC_HILL_SLOPE 12.4, PBLUC_R_SQUARED 0.0122, read-out: LUCIFERASE INFECTION ASSAY - IC50) was above 10 µM.
Consider `O=C(NCCSCc1ccc2nonc2c1)c1ccc(Cl)cc1Cl`, for which the IC90 is above 8.63 µM. Also, the IC50 under setting [1] is above 8.63 µM.
`Oc1ccccc1Nc1nc(NCc2ccccc2)c2ccccc2n1`: the IC90 was above 8.71 µM. In addition, the IC50 under setting [1] was determined as 2.58 µM.
Taken in the same sequence, the figures for `COC(=O)c1c(NC(C)=O)c2cc(NC(C)Cc3ccccc3F)cnc2n1CCC(C)C` (stereo not drawn) were above 7.26 µM and above 7.26 µM.
On the same counts, the results for `COc1ccccc1-n1c(SCc2cc(=O)oc3c(C)c(C)ccc23)nc2ccccc2c1=O` are above 10 µM and above 10 µM.
On to `CCN(CC)c1ccc(NC(=O)c2cccc(F)c2)cc1`, for which the IC90 came to 6.44 µM. Where the note is “HEPG2TOX_HILL_SLOPE 2.87, HEPG2TOX_R_SQUARED 0.815, PBLUC_HILL_SLOPE 5.54, PBLUC_R_SQUARED 0.522, read-out: LUCIFERASE INFECTION ASSAY - IC50”, the IC50 amounted to 4.33 µM.
For `Cn1ncc(C#N)c1NC(=O)c1cccc(Oc2ccccc2)c1`, the IC90 came to 8.69 µM. In addition, where the note is “HEPG2TOX_HILL_SLOPE 1.03, HEPG2TOX_R_SQUARED 0.84, PBLUC_HILL_SLOPE 1.64, 1.43, PBLUC_R_SQUARED 0.588, 0.656, read-out: LUCIFERASE INFECTION ASSAY - IC50”, the half-maximal inhibitory concentration (IC50) turned out to be 2.85 µM.
On to `COc1cc(-c2cc(C(=O)N/N=C3/C(=O)N(CC(C)C)c4ccccc43)c3ccccc3n2)cc(OC)c1OC`, for which the IC90 was above 10 µM. Moreover, under setting [1], the IC50 is above 10 µM.
Turning to `Cn1c(S)nnc1-c1ccc(C(C)(C)C)cc1`, the 90% effect concentration (IC90) was above 13.3 µM. Further, the 50% inhibitory concentration (IC50) under setting [1] was above 13.3 µM.
Consider `O=C1NC(=O)N2CSCC12` (stereo not drawn), for which the 90% effect concentration (IC90) is above 20.9 µM. Further, under setting [1], the half-inhibitory concentration (IC50) was above 20.9 µM.
As to `Nc1ccc(-c2cn3c(-c4ccc5ncccc5c4)cnc3cn2)cn1`, the 90% effect concentration (IC90) was 8.67 µM. For the setting “HEPG2TOX_HILL_SLOPE 12.3, HEPG2TOX_R_SQUARED 0.596, PBLUC_HILL_SLOPE 12.7, PBLUC_R_SQUARED 0.251, read-out: LUCIFERASE INFECTION ASSAY - IC50”, the IC50 was found to be 7.29 µM.
`Cc1cccc(Nc2ccccc2C(=O)Oc2ccc(Cl)cc2Cc2ccccc2)c1C`: the IC90 was above 10 µM. Moreover, under “HEPG2TOX_HILL_SLOPE 0.105, HEPG2TOX_R_SQUARED 0.052, read-out: LUCIFERASE INFECTION ASSAY - IC50”, the IC50 is above 10 µM.
For the compound `O=S(=O)(NCc1cc(Cl)cc(Cl)c1)c1cc(C(F)(F)F)cc(C(F)(F)F)c1`, the IC90 is above 7.3 µM. The IC50 (PBLUC_HILL_SLOPE 3.39, PBLUC_R_SQUARED 0.218, read-out: LUCIFERASE INFECTION ASSAY - IC50) came to 6.75 µM.
Consider `Cc1cc(C)n(-c2nc(-c3ccccc3)cc(N3CCCC3)n2)n1`, for which the IC90 was found to be 8.47 µM. Also, the IC50 (PBLUC_HILL_SLOPE 3.13, PBLUC_R_SQUARED 0.498, read-out: LUCIFERASE INFECTION ASSAY - IC50) turned out to be 4.2 µM.
On to `O=C(NC1CC1)c1cccc(NC(C(=O)Nc2cc(C(F)(F)F)ccc2Cl)c2ccccc2)c1` (stereo not drawn), for which the IC90 was above 10 µM. The IC50 under setting [1] amounted to 9.94 µM.
On to `COc1ccc(-c2csc3ncnc(NCc4cccnc4)c23)cc1`, for which the IC90 is above 10 µM. The IC50 (HEPG2TOX_HILL_SLOPE 6.97, HEPG2TOX_R_SQUARED 0.88, PBLUC_HILL_SLOPE 2.74, PBLUC_R_SQUARED 0.795, read-out: LUCIFERASE INFECTION ASSAY - IC50) worked out at 6.71 µM.
Consider `FC(F)(F)c1cccc(CNc2ncnc3sccc23)c1`, for which the IC90 came to 6.39 µM. Also, the IC50 (HEPG2TOX_HILL_SLOPE 0.888, 1.51, HEPG2TOX_R_SQUARED 0.921, 0.862, PBLUC_HILL_SLOPE 1.26, 1.66, PBLUC_R_SQUARED 0.564, 0.617, read-out: LUCIFERASE INFECTION ASSAY - IC50) came to 1.42 µM.
For the compound `CC1CC(C)CN(Cc2ccccc2CNC(=O)Nc2nnc(C3CC3)s2)C1` (stereo not drawn), the concentration for an effect of 90% (IC90) was above 10 µM. Besides, the IC50 (HEPG2TOX_HILL_SLOPE 1.87, HEPG2TOX_R_SQUARED 0.778, PBLUC_HILL_SLOPE 3.71, PBLUC_R_SQUARED 0.683, read-out: LUCIFERASE INFECTION ASSAY - IC50) came to 6.46 µM.
Regarding `NC(=S)N/N=C/c1ccc(Cl)cc1`, the IC90 was above 15.4 µM. For the same compound, the IC50 (HEPG2TOX_HILL_SLOPE 16.1, HEPG2TOX_R_SQUARED 0.56, PBLUC_HILL_SLOPE 1.65, PBLUC_R_SQUARED 0.115, read-out: LUCIFERASE INFECTION ASSAY - IC50) is above 15.4 µM.
Turning to `CCOc1ccc(-c2nc(CSc3nnc(-c4ccccc4OC)n3CC)cs2)cc1`, the IC90 is above 10 µM. In addition, where the note is “HEPG2TOX_HILL_SLOPE 10.1, HEPG2TOX_R_SQUARED 0.28, PBLUC_HILL_SLOPE 16.2, PBLUC_R_SQUARED 0.242, read-out: LUCIFERASE INFECTION ASSAY - IC50”, the IC50 amounted to 9.09 µM.
On to `COc1cc(/C=C/C(=O)Oc2c(Cl)cc(Cl)c3ccc(C)nc23)cc(OC)c1OC`, for which the IC90 stood at 3.54 µM. Also, the 50% inhibitory concentration (IC50) (HEPG2TOX_HILL_SLOPE 1.48, HEPG2TOX_R_SQUARED 0.88, PBLUC_HILL_SLOPE 12.1, PBLUC_R_SQUARED 0.667, read-out: LUCIFERASE INFECTION ASSAY - IC50) stood at 2.95 µM.
As for `O=C(NC(CCCc1ccccc1)c1ccccc1)c1ccc(N2CCCS2(=O)=O)cc1` (stereo not drawn), the IC90 came out at 5.73 µM. Further, the IC50 under setting [1] was 5.56 µM.
For `Cc1oc2c(c1C(=O)NC(C)(C)C)C(=O)c1ccccc1C2=O`, the IC90 is 4.63 µM. Besides, the IC50 (HEPG2TOX_HILL_SLOPE 2.79, HEPG2TOX_R_SQUARED 0.986, PBLUC_HILL_SLOPE 0.957, PBLUC_R_SQUARED 0.592, read-out: LUCIFERASE INFECTION ASSAY - IC50) was found to be 0.466 µM.
On to `O=C(Nc1cccc(Cl)c1)Nc1ccc2nc(-c3ccncc3)nn2c1`, for which the IC90 was 3.69 µM. Moreover, the IC50 (PBLUC_HILL_SLOPE 15.9, PBLUC_R_SQUARED 0.357, read-out: LUCIFERASE INFECTION ASSAY - IC50) is 3.21 µM.
With `c1ccc(-c2nnc(SCc3cn4ccccc4n3)nc2-c2ccccc2)cc1`, the IC90 is above 10 µM. Moreover, the IC50 under setting [1] is above 10 µM.
Turning to `O=c1c(Cl)c(Cl)cnn1-c1cnc2ccccc2n1`, the IC90 is above 11.3 µM. Besides, the IC50 (FFLUC_HILL_SLOPE 1.37, FFLUC_R_SQUARED 0.431, HEPG2TOX_HILL_SLOPE 2.28, HEPG2TOX_R_SQUARED 0.959, PBLUC_HILL_SLOPE 0.482, PBLUC_R_SQUARED 0.686, read-out: LUCIFERASE INFECTION ASSAY - IC50) was 0.149 µM.
`O=C(Nc1ccc(Oc2ccc(OC(F)(F)F)cc2)cc1)C1CC1`: the IC90 was determined as 1.54 µM. Besides, the IC50 (PBLUC_HILL_SLOPE 2.12, PBLUC_R_SQUARED 0.759, read-out: LUCIFERASE INFECTION ASSAY - IC50) worked out at 0.548 µM.
